Reference: ChEMBL document CHEMBL3826886, “LpxC Inhibitors: Design, Synthesis, and Biological Evaluation of Oxazolidinones as Gram-negative Antibacterial Agents” (ACS Med Chem Lett, 2016)
≈ marks a conversion by molar mass, not a printed value. Calls of active or inactive are those of the source. The calls are words filed in the database; no cut-off is given here.

Key:
Klebsiella pneumoniae = experiment: Antibacterial activity against wild-type Klebsiella pneumoniae ATCC 13883 by agar dilution method; assay type: functional
Escherichia coli [1] = experiment: Antibacterial activity against Escherichia coli KAM3 harboring acrB deletion mutant after 16 to 20 hrs by agar dilution method; assay type: functional
Escherichia coli [2] = experiment: Antibacterial activity against wild-type Escherichia coli TG1 after 16 to 20 hrs by agar dilution method; assay type: functional
Acinetobacter baumannii = experiment: Antibacterial activity against Acinetobacter baumannii ATCC 19606 measured after 20 to 24 hrs by agar dilution method; assay type: functional
Pseudomonas aeruginosa [3] = experiment: Antibacterial activity against Pseudomonas aeruginosa PAO4009 measured after 16 to 20 hrs by agar dilution method; assay type: functional, organism-based
[4] = biological target: T1, UDP-3-O-acyl-N-acetylglucosamine deacetylase (Escherichia coli K-12, UniProt P0A725); experiment: Inhibition of Escherichia coli LpxC using UDP-3-O-(R-3-hydroxymyristoyl)GlcNAc as substrate measured after 60 mins by fluorescence analysis
T1 sequence (P0A725 whole entry): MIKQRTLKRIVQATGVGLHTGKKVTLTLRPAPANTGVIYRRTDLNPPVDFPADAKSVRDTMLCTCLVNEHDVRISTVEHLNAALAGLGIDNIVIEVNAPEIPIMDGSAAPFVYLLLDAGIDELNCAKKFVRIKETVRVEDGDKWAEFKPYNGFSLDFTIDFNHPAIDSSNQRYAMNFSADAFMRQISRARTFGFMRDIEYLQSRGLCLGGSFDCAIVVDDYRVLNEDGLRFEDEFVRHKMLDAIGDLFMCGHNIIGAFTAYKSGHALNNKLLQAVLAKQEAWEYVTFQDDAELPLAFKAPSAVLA

Pseudomonas aeruginosa [5] = experiment: Antibacterial activity against Pseudomonas aeruginosa K799/61 measured after 16 to 20 hrs by agar dilution method; assay type: functional, organism-based
Pseudomonas aeruginosa [6] = experiment: Antibacterial activity against wild type Pseudomonas aeruginosa K799 measured after 16 to 20 hrs by agar dilution method; assay type: functional, organism-based
[7] = Ratio of MIC for wild-type Escherichia coli TG1 to MIC for Escherichia coli KAM3 acrB deletion mutant; assay type: functional

SMILES | MIC (Klebsiella pneumoniae) [µg/mL] | MIC (Escherichia coli [1]) [µg/mL] | MIC (Escherichia coli [2]) [µg/mL] | Activity (Acinetobacter baumannii) | Activity (Pseudomonas aeruginosa [3]) | IC50 [4] [nM] | Activity (Pseudomonas aeruginosa [5]) | Activity (Pseudomonas aeruginosa [6]) | Ratio [7]
C[C@@H](O)[C@H](NC(=O)c1ccc(C#Cc2ccc(CN3CCOCC3)cc2)cc1)C(=O)NO | 0.25 (≈ 0.571 µM) | 0.01 (≈ 0.0229 µM) | 0.13 (≈ 0.297 µM) | – | – | – | – | – | –
O=C(NO)[C@@H]1CN(c2ccc(C#CC#CC3CC3)c(F)c2)C(=O)O1 | 0.063 (≈ 0.192 µM) | 0.004 (≈ 0.0122 µM) | 0.016 (≈ 0.0487 µM) | inactive | inactive | 6 | inactive | inactive | 2
O=C(NO)[C@H]1CN(c2ccc(C#Cc3ccc(CN4CCOCC4)cc3)cc2)C(=O)O1 | 8 (≈ 19 µM) | 0.13 (≈ 0.308 µM) | 1 (≈ 2.37 µM) | – | – | 260 | – | – | –
O=C(NO)c1ccc(=O)n(-c2ccc(C#Cc3ccc(CN4CCOCC4)cc3)cc2)c1 | 64 (≈ 149 µM) | 1 (≈ 2.33 µM) | 8 (≈ 18.6 µM) | – | – | 1000 | – | – | –
COc1cc(C#CC#CC2CC2)ccc1N1C[C@@H](C(=O)NO)OC1=O | 32 (≈ 94 µM) | 0.5 (≈ 1.47 µM) | 4 (≈ 11.8 µM) | – | – | 2000 | – | – | 2
Nc1cc(N2C[C@@H](C(=O)NO)OC2=O)ccc1C#CC#CC1CC1 | 2 (≈ 6.15 µM) | 0.063 (≈ 0.194 µM) | 0.25 (≈ 0.768 µM) | – | – | 270 | – | – | 2
O=C(NO)[C@@H]1CN(c2ccc(C#CC#CCCCO)cc2)C(=O)O1 | 2 (≈ 6.09 µM) | 0.031 (≈ 0.0944 µM) | 0.125 (≈ 0.381 µM) | – | – | 58 | – | – | 2
O=C(NO)[C@@H]1CN(c2ccc(C#CC#C[C@H]3C[C@@H]3CO)cc2)C(=O)O1 (mixture of isomers) | 1 | 0.016 | 0.125 | – | – | 20 | – | – | 2
O=C(NO)[C@@H]1CN(c2ccc(C#CC#CC3CC3)cc2F)C(=O)O1 | 4 (≈ 12.2 µM) | 0.25 (≈ 0.762 µM) | 0.5 (≈ 1.52 µM) | inactive | inactive | 200 | inactive | inactive | 2
O=C(NO)[C@@H]1CN(c2ccc(C#Cc3ccc(CN4CCOCC4)cc3)cc2)C(=O)N1 | > 32 | 0.5 (≈ 1.19 µM) | 8 (≈ 19 µM) | – | – | 700 | – | – | –
O=C(NO)[C@@H]1CN(c2ccc(C#CC#CCCO)cc2)C(=O)O1 | 8 (≈ 25.5 µM) | 0.125 (≈ 0.398 µM) | 0.5 (≈ 1.59 µM) | – | – | 140 | – | – | 2
O=C(NO)[C@@H]1CN(c2ccc(C#Cc3ccc(CN4CCOCC4)cc3)cc2)C(=O)O1 | 2 (≈ 4.75 µM) | 0.06 (≈ 0.142 µM) | 0.5 (≈ 1.19 µM) | inactive | inactive | 130 | inactive | inactive | 2
O=C(NO)[C@@H]1CN(c2ccc(C#CC#CC3CC3)c([N+](=O)[O-])c2)C(=O)O1 | 1 (≈ 2.81 µM) | 0.31 (≈ 0.872 µM) | 0.125 (≈ 0.352 µM) | – | – | 27 | – | – | 2
O=C(NO)[C@@H]1CN(c2ccc(C#CC#CC3CC3)cc2)C(=O)O1 | 0.25 (≈ 0.806 µM) | 0.016 (≈ 0.0516 µM) | 0.063 (≈ 0.203 µM) | inactive | inactive | 18 | inactive | inactive | 2
O=C(NO)[C@@H]1CN(c2ccc(C#Cc3ccc(CN4CCOCC4)cc3)cc2)C(=O)CO1 | 16 (≈ 36.7 µM) | 0.25 (≈ 0.574 µM) | 2 (≈ 4.59 µM) | – | – | 510 | – | – | –
